{
  "source": "PubChem BioAssay (NCI)",
  "assay_in_all_cases": "inhibition of tumour cell growth, NCI panel, 48 h",
  "key": {"HOP-62 NSCLC": {"system": "HOP-62 NSCLC"}, "786-0 renal": {"system": "786-0 renal"}, "HCT-116 colon": {"system": "HCT-116 colon"}, "T-47D breast": {"system": "T-47D breast"}, "OVCAR-5 ovarian": {"system": "OVCAR-5 ovarian"}, "RXF 393 renal": {"system": "RXF 393 renal"}, "BT-549 breast": {"system": "BT-549 breast"}, "COLO 205 colon": {"system": "COLO 205 colon"}, "NCI-H522 lung": {"system": "NCI-H522 lung"}, "EKVX NSCLC": {"system": "EKVX NSCLC"}, "OVCAR-3 ovarian": {"system": "OVCAR-3 ovarian"}, "SK-MEL-5 melanoma": {"system": "SK-MEL-5 melanoma"}, "LOX IMVI melanoma": {"system": "LOX IMVI melanoma"}, "IGROV1 ovarian": {"system": "IGROV1 ovarian"}, "PC-3 prostate": {"system": "PC-3 prostate"}, "NCI-H226 lung": {"system": "NCI-H226 lung"}, "A498 renal": {"system": "A498 renal"}, "HS 578T breast": {"system": "HS 578T breast"}, "TK-10 renal": {"system": "TK-10 renal"}, "UACC-62 melanoma": {"system": "UACC-62 melanoma"}, "NCI-H23 lung": {"system": "NCI-H23 lung"}, "MOLT-4 leukemia": {"system": "MOLT-4 leukemia"}, "OVCAR-4 ovarian": {"system": "OVCAR-4 ovarian"}, "CAKI-1 renal": {"system": "CAKI-1 renal"}, "M14 melanoma": {"system": "M14 melanoma"}, "SK-OV-3 ovarian": {"system": "SK-OV-3 ovarian"}, "U251 CNS": {"system": "U251 CNS"}, "A549 NSCLC": {"system": "A549 NSCLC"}, "MCF7 breast": {"system": "MCF7 breast"}, "SNB-19 CNS": {"system": "SNB-19 CNS"}, "SK-MEL-2 melanoma": {"system": "SK-MEL-2 melanoma"}, "SF-268 CNS": {"system": "SF-268 CNS"}, "SF-539 CNS": {"system": "SF-539 CNS"}, "DU-145 prostate": {"system": "DU-145 prostate"}, "MDA-MB-231 breast": {"system": "MDA-MB-231 breast"}, "SNB-75 CNS": {"system": "SNB-75 CNS"}, "NCI-H460 lung": {"system": "NCI-H460 lung"}, "HOP-92 NSCLC": {"system": "HOP-92 NSCLC"}, "SN12C renal": {"system": "SN12C renal"}, "ACHN renal": {"system": "ACHN renal"}, "SF-295 CNS": {"system": "SF-295 CNS"}, "HCT-15 colon": {"system": "HCT-15 colon"}, "HL-60(TB) leukemia": {"system": "HL-60(TB) leukemia"}, "RPMI-8226 leukemia": {"system": "RPMI-8226 leukemia"}},
  "note": "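Grown in 96-well plates, cells were treated for 48 hours with each compound at five concentrations. Insufficient inhibition: endpoint recorded as highest concentration tested. The concentration for 50% growth inhibition is given as GI50. At the TGI there is no net growth.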",
  "data": [
    {"smiles": "COc1cc2oc(-c3cccc(C(=O)Nc4cccc([N+](=O)[O-])c4)c3)cc(=O)c2c(OC)c1OC", "values": [
      {"measurement": "GI50", "setting": "HOP-62 NSCLC", "value": 6.31, "unit": "µM"},
      {"measurement": "TGI", "setting": "HOP-62 NSCLC", "value": 33.6, "unit": "µM"},
      {"measurement": "GI50", "setting": "786-0 renal", "value": 3.68, "unit": "µM"},
      {"measurement": "TGI", "setting": "786-0 renal", "value": 21.7, "unit": "µM"},
      {"measurement": "GI50", "setting": "HCT-116 colon", "value": 3.57, "unit": "µM"},
      {"measurement": "TGI", "setting": "HCT-116 colon", "value": "> 100", "unit": "µM"},
      {"measurement": "GI50", "setting": "T-47D breast", "value": 3.56, "unit": "µM"},
      {"measurement": "TGI", "setting": "T-47D breast", "value": "> 100", "unit": "µM"},
      {"measurement": "GI50", "setting": "OVCAR-5 ovarian", "value": "> 100", "unit": "µM"},
      {"measurement": "TGI", "setting": "OVCAR-5 ovarian", "value": "> 100", "unit": "µM"},
      {"measurement": "GI50", "setting": "RXF 393 renal", "value": 2.28, "unit": "µM"},
      {"measurement": "TGI", "setting": "RXF 393 renal", "value": 18.8, "unit": "µM"},
      {"measurement": "GI50", "setting": "BT-549 breast", "value": 2.46, "unit": "µM"},
      {"measurement": "TGI", "setting": "BT-549 breast", "value": 8.09, "unit": "µM"},
      {"measurement": "GI50", "setting": "COLO 205 colon", "value": "> 100", "unit": "µM"},
      {"measurement": "TGI", "setting": "COLO 205 colon", "value": "> 100", "unit": "µM"},
      {"measurement": "GI50", "setting": "NCI-H522 lung", "value": 3.14, "unit": "µM"},
      {"measurement": "TGI", "setting": "NCI-H522 lung", "value": 23.2, "unit": "µM"},
      {"measurement": "GI50", "setting": "EKVX NSCLC", "value": 7.32, "unit": "µM"},
      {"measurement": "TGI", "setting": "EKVX NSCLC", "value": "> 100", "unit": "µM"},
      {"measurement": "GI50", "setting": "OVCAR-3 ovarian", "value": 4.44, "unit": "µM"},
      {"measurement": "TGI", "setting": "OVCAR-3 ovarian", "value": "> 100", "unit": "µM"},
      {"measurement": "GI50", "setting": "SK-MEL-5 melanoma", "value": 5.17, "unit": "µM"},
      {"measurement": "TGI", "setting": "SK-MEL-5 melanoma", "value": "> 100", "unit": "µM"},
      {"measurement": "GI50", "setting": "LOX IMVI melanoma", "value": 5.73, "unit": "µM"},
      {"measurement": "TGI", "setting": "LOX IMVI melanoma", "value": "> 100", "unit": "µM"},
      {"measurement": "GI50", "setting": "IGROV1 ovarian", "value": 7.99, "unit": "µM"},
      {"measurement": "TGI", "setting": "IGROV1 ovarian", "value": "> 100", "unit": "µM"},
      {"measurement": "GI50", "setting": "PC-3 prostate", "value": 3.55, "unit": "µM"},
      {"measurement": "TGI", "setting": "PC-3 prostate", "value": "> 100", "unit": "µM"},
      {"measurement": "GI50", "setting": "NCI-H226 lung", "value": 2.29, "unit": "µM"},
      {"measurement": "TGI", "setting": "NCI-H226 lung", "value": 7.38, "unit": "µM"},
      {"measurement": "GI50", "setting": "A498 renal", "value": 34.9, "unit": "µM"},
      {"measurement": "TGI", "setting": "A498 renal", "value": "> 100", "unit": "µM"},
      {"measurement": "GI50", "setting": "HS 578T breast", "value": 2.51, "unit": "µM"},
      {"measurement": "TGI", "setting": "HS 578T breast", "value": 7.23, "unit": "µM"},
      {"measurement": "GI50", "setting": "TK-10 renal", "value": 11.5, "unit": "µM"},
      {"measurement": "TGI", "setting": "TK-10 renal", "value": 60.8, "unit": "µM"},
      {"measurement": "GI50", "setting": "UACC-62 melanoma", "value": 4.92, "unit": "µM"},
      {"measurement": "TGI", "setting": "UACC-62 melanoma", "value": "> 100", "unit": "µM"},
      {"measurement": "GI50", "setting": "NCI-H23 lung", "value": 22.5, "unit": "µM"},
      {"measurement": "TGI", "setting": "NCI-H23 lung", "value": "> 100", "unit": "µM"},
      {"measurement": "GI50", "setting": "MOLT-4 leukemia", "value": "> 100", "unit": "µM"},
      {"measurement": "TGI", "setting": "MOLT-4 leukemia", "value": "> 100", "unit": "µM"},
      {"measurement": "GI50", "setting": "OVCAR-4 ovarian", "value": 2.72, "unit": "µM"},
      {"measurement": "TGI", "setting": "OVCAR-4 ovarian", "value": 9.09, "unit": "µM"},
      {"measurement": "GI50", "setting": "CAKI-1 renal", "value": 2.86, "unit": "µM"},
      {"measurement": "TGI", "setting": "CAKI-1 renal", "value": 10.9, "unit": "µM"},
      {"measurement": "GI50", "setting": "M14 melanoma", "value": "> 100", "unit": "µM"},
      {"measurement": "TGI", "setting": "M14 melanoma", "value": "> 100", "unit": "µM"},
      {"measurement": "GI50", "setting": "SK-OV-3 ovarian", "value": 4.26, "unit": "µM"},
      {"measurement": "TGI", "setting": "SK-OV-3 ovarian", "value": "> 100", "unit": "µM"},
      {"measurement": "GI50", "setting": "U251 CNS", "value": 6.69, "unit": "µM"},
      {"measurement": "TGI", "setting": "U251 CNS", "value": "> 100", "unit": "µM"},
      {"measurement": "GI50", "setting": "A549 NSCLC", "value": 4.94, "unit": "µM"},
      {"measurement": "TGI", "setting": "A549 NSCLC", "value": "> 100", "unit": "µM"},
      {"measurement": "GI50", "setting": "MCF7 breast", "value": 3.8, "unit": "µM"},
      {"measurement": "TGI", "setting": "MCF7 breast", "value": "> 100", "unit": "µM"},
      {"measurement": "GI50", "setting": "SNB-19 CNS", "value": 6.91, "unit": "µM"},
      {"measurement": "TGI", "setting": "SNB-19 CNS", "value": 68.9, "unit": "µM"},
      {"measurement": "GI50", "setting": "SK-MEL-2 melanoma", "value": 11.9, "unit": "µM"},
      {"measurement": "TGI", "setting": "SK-MEL-2 melanoma", "value": "> 100", "unit": "µM"},
      {"measurement": "GI50", "setting": "SF-268 CNS", "value": 3.49, "unit": "µM"},
      {"measurement": "TGI", "setting": "SF-268 CNS", "value": "> 100", "unit": "µM"},
      {"measurement": "GI50", "setting": "SF-539 CNS", "value": 4.4, "unit": "µM"},
      {"measurement": "TGI", "setting": "SF-539 CNS", "value": 41.7, "unit": "µM"},
      {"measurement": "GI50", "setting": "DU-145 prostate", "value": 4.77, "unit": "µM"},
      {"measurement": "TGI", "setting": "DU-145 prostate", "value": "> 100", "unit": "µM"},
      {"measurement": "GI50", "setting": "MDA-MB-231 breast", "value": 4.26, "unit": "µM"},
      {"measurement": "TGI", "setting": "MDA-MB-231 breast", "value": "> 100", "unit": "µM"},
      {"measurement": "GI50", "setting": "SNB-75 CNS", "value": 1.99, "unit": "µM"},
      {"measurement": "TGI", "setting": "SNB-75 CNS", "value": 6.08, "unit": "µM"},
      {"measurement": "GI50", "setting": "NCI-H460 lung", "value": 3.87, "unit": "µM"},
      {"measurement": "TGI", "setting": "NCI-H460 lung", "value": "> 100", "unit": "µM"},
      {"measurement": "GI50", "setting": "HOP-92 NSCLC", "value": 5.46, "unit": "µM"},
      {"measurement": "TGI", "setting": "HOP-92 NSCLC", "value": 42.4, "unit": "µM"},
      {"measurement": "GI50", "setting": "SN12C renal", "value": 3.36, "unit": "µM"},
      {"measurement": "TGI", "setting": "SN12C renal", "value": "> 100", "unit": "µM"},
      {"measurement": "GI50", "setting": "ACHN renal", "value": 3.22, "unit": "µM"},
      {"measurement": "TGI", "setting": "ACHN renal", "value": "> 100", "unit": "µM"},
      {"measurement": "GI50", "setting": "SF-295 CNS", "value": 2.51, "unit": "µM"},
      {"measurement": "TGI", "setting": "SF-295 CNS", "value": 6.9, "unit": "µM"},
      {"measurement": "GI50", "setting": "HCT-15 colon", "value": 5.25, "unit": "µM"},
      {"measurement": "TGI", "setting": "HCT-15 colon", "value": "> 100", "unit": "µM"},
      {"measurement": "GI50", "setting": "HL-60(TB) leukemia", "value": "> 100", "unit": "µM"},
      {"measurement": "TGI", "setting": "HL-60(TB) leukemia", "value": "> 100", "unit": "µM"},
      {"measurement": "GI50", "setting": "RPMI-8226 leukemia", "value": 2.88, "unit": "µM"},
      {"measurement": "TGI", "setting": "RPMI-8226 leukemia", "value": "> 100", "unit": "µM"}
    ]}
  ]
}
